Entries after “also recorded” stand apart in the source; their conditions may differ.
Experiments:
[1] = system: antigen-specific T cells (CD4 or CD8-positive) from healthy human PBMCs; test: Immunogenicity evaluation of peptides with healthy human PBMCs (ICS for IFNy or IFNy ELISA); assay type: cell-based; conditions: for activation of CD4-positive T cells / immunogenicity as HLA Class I / Class II epitope: healthy donor PBMCs; for activation of CD4-positive T cells: CD4-positive IFNy-producing cells; for samples in which the peptide had immunogenicity (positive/tested): single peptide re-analysis, 24 donors (Mix-1, Mix-2 peptides) or 25 donors (Mix-3 peptides); for activation of CD8-positive cells: donor No. 9
Description: Peripheral blood mononuclear cells (PBMCs) that were those of a lot containing HLA-A*24:02 or A*02:01 of purified normal human PBMCs (Precision Bioservice, 93000-10M or -50M), were selected and used. Alternatively, PBMCs were separated and collected by density gradient centrifugation from peripheral blood provided by 10 healthy volunteers (including those of HLA-A*24:02 or A*02:01) recruited at the Kanagawa Cancer Center Research Institute, and were used in the experiment.
Healthy human PBMCs of 2×10^6 cells were cultured (a CO2 incubator; 5% CO2 and at 37° C.) for 7 days in the presence of the peptides to be evaluated (2, 2.5 or 5 μg/mL, and in the case of Mix (described later), 2 lag/mL for each peptide), and then the cells were collected. AIM-V medium (Thermo Fisher Scientific K.K., 12055-091) supplemented with a 5% human serum (NIP Biomedicals, 2931949) was used as medium.
On the other hand, the PBMCs of the same lot were cultured in the presence of a GM-CSF and IL-4 for 7 days to differentiate into dendritic cells (DC), and a part thereof was cryopreserved.
Cell stimulation for evaluation of immunogenicity was carried out according to the method outlined in FIG. 2. Namely, the PBMCs stimulated with the peptide for 7 days were collected and co-cultured in the presence of DC (1×10^5 cells) treated with a mitomycin C (60 μg/mL, Kyowa Kirin Co., Ltd.), each peptide (2, 2.5 or 5 μg/mL), and 0.1 KE/mL of OK-432 (for injection of Picibanil, Chugai Pharmaceutical Co., Ltd.). An IL-2 (PeproTech, Inc., AF-200-02) was added at 10 IU/mL on the second day of the co-culture (Day 9 with the stimulation start date as Day 0), and the cells were further cultured for 5 days.
After culturing (Day 14), the cells were collected, the cryopreserved DC was thawed, and the cells were co-cultured again in the presence of the same concentration of each peptide for 7 days. The cells cultured for a total of 21 days were collected, and activation of antigen-specific T cells was confirmed by intracellular cytokine staining (ICS) or IFNy ELISA. For evaluation, the PBMCs for 24 donors (of Mix-1 and Mix-2) or the PBMCs for 25 donors (of Mix-3) (the donor numbers 1 to 10 are derived from healthy volunteers, and the donor numbers with 3 digits were purchased from Precision Bioservice, Inc.), were used. In this study, 10 kinds of peptides designed from the sequences containing the driver mutations in Example 1 and synthesized (SEQ ID NO: 1 to SEQ ID NO: 10) were mixed to the following mixtures containing 3 to 4 kinds of peptides (see FIG. 4): Mix-1: a mixture of KRA S-G 1 2C (SEQ ID NO: 3), NRAS-Q61K (SEQ ID NO: 6) and PIK3CA-H1047R (SEQ ID NO: 8); Mix-2: a mixture of KRAS-G12V (SEQ ID NO: 2), NRAS-Q61R (SEQ ID NO: 7), and PIK3CA-E545K (SEQ ID NO: 9); and Mix-3: a mixture of KRAS-G12D (SEQ ID NO: 1), KRAS-G12R (SEQ ID NO: 4), KRAS-G13D (SEQ ID NO: 5), and C-Kit-D816V (SEQ ID NO: 10). First, activation of antigen-specific T cells by stimulation with each Mix was observed, and when the activation was observed, the T cells were stimulated in the presence of each peptide alone to identify a peptide having immunogenicity. The presence or absence of activation was determined by the ICS (IFNy) or ELISA (IFNy in the culture supernatant).
Intracellular cytokine staining (ICS) was carried out according to the following procedure. The cells (5.0×10^4 cells) cultured for 21 days in the presence of the peptide and collected in the present Example, and antigen-presenting cells (APC) (autologous DC; 5×10^3 cells) were placed in a 96-well U bottom plate and cultured for 2 hours in the presence of the peptide. 10 μg/mL of Brefeldin A (Merck KGaA, B7651) was added to the cells to culture for 20 to 24 hours. […]

[2] = system: PIK3CA-H1047R-specific TCR-T cells; test: Antigen specificity of TCR-T cells (IFNy-producing cells by flow cytometer); assay type: cell-based, human; conditions: TCR-T cells co-cultured with APC (donor No. 9-derived EB virus immortalized B cells) in the presence of the peptide, 20 to 24 hours
Experimental: Via a retrovirus vector (donated by Toyama University) to which the TCRa chain gene (SEQ ID NO: 29) and TCRI3 chain gene (SEQ ID NO: 30) identified in Example 5 derived from the donor No. 9-derived PIK3CA-H1047R-specific T cells were inserted, a cell line (TCR-T cell) expressing the TCR gene was prepared by introducing the PIK3CA-H1047R-specific TCR gene into T cells derived from healthy subjects. The prepared TCR-T cells (TCR gene-expressing cell line) (5.0×10^4 cells as T cells) and APC (donor No. 9-derived EB virus immortalized B cells; 5×10^3 cells) were cultured in a 96 well U bottom plate for 20 to 24 hours in the presence of the antigen peptide (PIK3CA-H1047R (SEQ ID NO: 8)) or the wild-type peptide thereof ([…]), then the cultured cells were collected, and antigen specificity was confirmed by detecting IFNy-producing cells with a flow cytometer.

[3] = molecular target: T1, PIK3CA H1047R peptide on HLA-DRB1*04:05 (human); test: cytokine release
T1 peptide: EALEYFMKQMNDARH

[4] = molecular target: T2, PIK3CA wild-type peptide on HLA-DRB1*04:05 (human); test: cytokine release
T2 peptide: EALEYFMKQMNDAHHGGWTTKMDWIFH

[5] = molecular target: T3, PIK3CA H1047R peptide on HLA-DRB1*04:05 (human); test: cytokine release
T3 peptide: FMKQMNDARHGGWT

[6] = molecular target: T4, PIK3CA H1047R peptide on HLA-DRB1*04:05 (human); test: cytokine release
T4 peptide: EYFMKQMNDARHGGW

[7] = molecular target: T5, PIK3CA H1047R peptide on HLA-DRB1*04:05 (human); test: cytokine release
T5 peptide: ALEYFMKQMNDARHG

[8] = molecular target: T6, PIK3CA H1047R peptide on HLA-DRB1*04:05 (human); test: cytokine release
T6 peptide: LEYFMKQMNDARHGG

[9] = molecular target: T7, PIK3CA H1047R peptide on HLA-DRB1*04:05 (human); test: cytokine release
T7 peptide: MKQMNDARHGGWTT

[10] = molecular target: T8, PIK3CA H1047R peptide on HLA-DRB1*04:05 (human); test: cytokine release
T8 peptide: YFMKQMNDARHGGW

For “NRAS-Q61R: 27-mer NRAS Q61R neoantigen peptide GETCLLDILDTAG[R]EEYSAMRDQYMRT (GETCLLDILDTAGREEYSAMRDQYMRT; listed as Homo sapiens)”, the “activation of CD4-positive T cells” value [1] was “they were all CD4-positive T cells; also recorded: activation of CD4-positive T cells was observed; also recorded: particularly strong ability to activate CD4-positive helper T cells” and the “samples in which the peptide had immunogenicity (positive/tested)” value (“samples … (positive/tested)” below) [1] was 3/24.

“EALEYFMKQMNDAHHGGWTTKMDWIFH [WT1, wild-type peptide of PIK3CA-H1047R, reference compound]” was tested, and the “frequency of IFNy-producing cells” value [2] was “less than 1%”.

“KRAS-G12D: 27-mer KRAS G12D neoantigen peptide MTEYKLVVVGA[D]GVGKSALTIQLIQNH” was tested, and the “activation of CD4-positive T cells” value [1] was “activation of CD4-positive T cells was observed; also recorded: particularly strong ability to activate CD4-positive helper T cells”, the “frequency of samples in which the peptide had immunogenicity” value ([1]; samples derived from healthy people, single peptide analysis) was 4.0% and the “samples … (positive/tested)” value [1] was 1/25.

With “C-Kit-D816V: 27-mer C-Kit D816V neoantigen peptide GRITKICDFGLAR[V]IKNDSNYVVKGNA (GRITKICDFGLARVIKNDSNYVVKGNA; listed as Homo sapiens)” the “activation of CD8-positive cells” value [1] was “activation of CD8-positive cells was observed in 1 donor”, the “immunogenicity as HLA Class I / Class II epitope” value [1] was “immunogenicity as both the HLA Class I epitope and the Class II epitope” and the “activation of CD4-positive T cells” value [1] was “those derived from 4 donors were CD4 positive; also recorded: activation of CD4-positive T cells was observed; also recorded: particularly strong ability to activate CD4-positive helper T cells”. For the same molecule, the “samples … (positive/tested)” value [1] was 5/25.

“PIK3CA-H1047R: 27-mer PIK3CA H1047R neoantigen peptide EALEYFMKQMNDA[R]HGGWTTKMDWIFH (EALEYFMKQMNDARHGGWTTKMDWIFH; listed as Homo sapiens)” was tested, and the “activation of CD8-positive cells” value [1] was “activation of CD8-positive cells was also observed”, the “immunogenicity as HLA Class I / Class II epitope” value [1] was “immunogenicity as both the HLA Class I epitope and the Class II epitope” and the “activation of CD4-positive T cells” value [1] was “All antigen-specific T cells activated in the 4 donors were CD4 positive; also recorded: activation of CD4-positive T cells was observed; also recorded: particularly strong ability to activate CD4-positive helper T cells”. For the same molecule, the “samples … (positive/tested)” value [1] was 4/24 and the “frequency of IFNy-producing cells” value [2] was 30.4%±0.9%.

B1: TCR of the donor No. 9-derived PIK3CA-H1047R-specific T cells (SEQ ID NOs 29 and 30) (TCR, V domains shown)
Valpha: QQVKQSPQSLIVQKGGISIINCAYENTAFEYFPWYQQFPGKGPALLIAIRPDVSEKKEGRFTISFNKSAKQFSLHIMDSQPGDSATYFCAASGSYNNNDMRFGAGTRLTVKP
Vbeta: NAGVTQTPKFQVLKTGQSMTLQCAQDMNHEYMSWYRQDPGMGLRLIHYSVGAGITDQGEVPNGYNVSRSTTEDFPLRLLSAAPSQTSVYFCASSYASPGTGYSGELFFGEGSRLTVL
B1: recognises [3]; no recognition [4]; recognises [5]. B1: recognises [6]; recognises [7]; recognises [8]. B1: recognises [9]; recognises [10].
